Experimental data taken from patent publication US7662361B2, “Methods and compositions for modulating drug activity through telomere damage” (priority 1999, dated 2010).

Legend:
Format in all cases: cell-based, human
PC3 cells = assay: Time course of apoptotic changes (caspase 3, PARP cleavage, DNA fragmentation, DNA-histone release); conditions: 20 nM paclitaxel
Procedure: Caspase Activity. The activity of Caspase 3 was measured using the ApoAlert CPP32 assay (Clontech Laboratories, Palo Alto, Calif.). Briefly, 1×10^6 cells were lysed using the lysis buffer provided in the assay kit. The lysate was stored at −20° C. and analyzed within 1 week. Enzyme activity was detected by the cleavage of the substrate, Asp-Glu-Val-Asp-7-amino-4-trifluoromethyl coumarin (DEVD-AFC) to AFC, which emits a yellow-green fluorescence at 505 nm. The increase in caspase activity is measured as the ratio of the fluorescence intensity of a agent-treated sample (e.g., paclitaxel) to that of control cells collected at the same time.
PARP Cleavage. […] PARP cleavage was analyzed by immunoblotting. […] Protease inhibitors were used to minimize proteolytic cleavage of PARP during processing. […] Samples were sonicated on ice, resuspended using a 21 gauge needle, and then incubated at 75° C. for 15 min. After centrifugation, an aliquot representing 1.5×10^5 cells was loaded on a 10% SDS polyacrylamide gel and run at 30 mA overnight. The gel was transferred onto a […] nitrocellulose membrane by electroblotting. The membrane was incubated with blocking solution (5% non-fat dry milk in PBS containing 0.1% Tween 20) for 1 hr, followed by incubation with the PARP monoclonal antibody overnight at 4° C. and subsequently the anti-mouse immunoglobulin. After washing the membrane in PBS twice for 5 min each and once for 30 min, the immunoreactive bands were visualized by incubation of the membrane with the chemiluminescence immunoblot kit.
Release of DNA-Histone Complex to Cytoplasm. The level of DNA-histone mono- and oligonucleosomes in the cytoplasm was measured using the cell death detection ELISA kit. Briefly, 5000 cells were lysed in the lysis buffer. The cytoplasmic fractions of the lysates were placed in a […] precoated with mouse antihistone primary antibody and mouse anti-DNA antibody conjugated to peroxidase. The peroxidase substrate, 2,2′-azido-di-[3-ethylbenzthiazoline sulfonate], was applied and the absorbance at 405 nm was measured.
DNA Fragmentation. […] DNA was extracted twice with phenol/chloroform (1:1) and once with chloroform, and precipitated by adding 0.2 volume 10 M […] and 2 volumes ethanol. The pellet obtained after centrifugation was resuspended in 100 mM Tris-HCl and 10 mM EDTA (pH 8.0). The amount of DNA was measured by the absorbance at 260 nm, using a spectrophotometer. Samples showing a 260:280 absorbance ratio of >1.8, which ascertained the purity of the isolated DNA, were analyzed by gel electrophoresis. […] The DNA laddering pattern was visualized by UV transillumination and photographed.

FaDu, MCF7 and PC3 cells = assay: Cell Death Detection ELISA, release of DNA-histone complex; conditions: single agents vs untreated controls
Procedure: Apoptosis was measured as the release of DNA-histone complex from the nucleus to the cytoplasm, using the Cell Death Detection ELISA kit which quantifies the amount of DNA-histone complex released into the cytoplasm. Briefly, drug-treated cells were collected and lysed in the lysis buffer. The cytoplasmic fractions of the lysates were placed in wells of a 96-well microtiter plate pre-coated with mouse antihistone primary antibody and mouse anti-DNA-antibody conjugated to peroxidase. The peroxidase substrate, 2,2′-azido-di-[3-ethylbenzthiazoline sulfonate], was applied and the absorbance at 405 nm was measured.
Treatment Protocol. Treatment with the above agents was initiated after cells were allowed to attach to the growth surface in culture flasks. […]
Drug activity evaluation. Agent effect was measured in three ways, i.e., enumeration of the number of cells that remained attached in culture flask, enumeration of the number of cells that detached from the growth surface, and by measuring changes in apoptosis. […] The remaining cell number after agent treatment was measured using the sulforhodamine B (SRB) assay. The drug-induced detachment of cells from the growth surface was determined by counting the attached and detached cells. Drug-induced apoptosis was measured using the Cell Death Detection ELISA kit which measures the release of DNA-histone complex from the nucleus to the cytoplasm. […]

FaDu cells = assay: Externalization of phosphatidylserine (Annexin V); conditions: 200 nM paclitaxel
Text: Externalization of phosphatidylserine. Apoptotic cells lose membrane phospholipid asymmetry and expose phosphatidylserine on the outer leaflet of plasma membrane. The externalized phosphatidylserine was labeled with Annexin V attached to a fluorescence probe FITC (green fluorescence), using the ApoAlert Annexin V assay (Clontech). As apoptosis progresses, propidium iodide penetrates the cell membrane and stains the cytoplasm (yellow-red stain). Briefly, cells were suspended in binding buffer, incubated with Annexin V-FITC and propidium iodide for 5-15 min in the dark, and examined by fluorescence microscopy. Cells labeled with FITC and/or propidium iodide were scored.

CC(=O)O[C@H]1C(=O)[C@@]2(C)[C@H]([C@H](OC(=O)c3ccccc3)[C@]3(O)C[C@H](OC(=O)[C@H](O)[C@@H](NC(=O)c4ccccc4)c4ccccc4)C(C)=C1C3(C)C)[C@]1(OC(C)=O)CO[C@@H]1C[C@@H]2O [paclitaxel] was tested, and the “caspase activation, time of occurrence” value (PC3 cells; attached cells) was 24 h, the PARP cleavage completed (PC3 cells; detached cells) was less than 72 h and the “PARP cleavage first detected” value (PC3 cells; detached cells) was 24 h. For the same compound, the “caspase activation first detected” value (PC3 cells; detached cells) was 12 h, the caspase activation peak (PC3 cells; detached cells) was 36 h and the “internucleosomal DNA fragmentation and release of DNA-histone complex first detected” value (PC3 cells; detached cells) was 24 h. For the same compound, the “release of DNA-histone complex from the nucleus to the cytoplasm” value (FaDu, MCF7 and PC3 cells) was “significant enhancement”, the “fraction labeled for externalized phosphatidylserine” value (FaDu cells; attached cells) was 6-8% and the “time at which labeled fraction became significantly higher than untreated controls” value (FaDu cells; detached cells) was 12 h. The “fraction labeled for externalized phosphatidylserine” value (FaDu cells; detached cells, 24 hr) was 60%.
